The record followed here is PMC10050154, “Coenzyme A binding sites induce proximal acylation across protein families” (Scientific Reports, 2023).

SMILES strings stand for the structures.

Assay [1] concerns the target T1, enoyl-CoA hydratase short chain 1 (ECHS1) (Homo sapiens, UniProt P30084).
T1 construct: recombinant, purified from E. coli, purchased from Novus Biologicals; homohexamer
T1 sequence (P30084 28-290): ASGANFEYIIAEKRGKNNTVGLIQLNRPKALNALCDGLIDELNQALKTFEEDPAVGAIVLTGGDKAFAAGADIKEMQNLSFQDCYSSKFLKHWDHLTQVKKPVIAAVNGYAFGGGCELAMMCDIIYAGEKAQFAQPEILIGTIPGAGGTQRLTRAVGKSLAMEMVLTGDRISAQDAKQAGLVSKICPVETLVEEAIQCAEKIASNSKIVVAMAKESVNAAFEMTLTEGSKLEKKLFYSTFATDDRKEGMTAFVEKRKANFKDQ
The assay is described as follows: LC-MS/MS (DIA) of site-specific lysine succinylation, dose-response. The assay is classed as biochemical.

For assay [2], the target named is T1, enoyl-CoA hydratase short chain 1 (ECHS1). Kind of assay: LC-MS/MS of lysine acetylation. Particulars: covalent (lysine acetylation at K282, K284, K204 near the CoA pocket). The assay is classed as binding.

In the case of `CC(C)(COP(=O)(O)OP(=O)(O)OC[C@H]1O[C@@H](n2cnc3c(N)ncnc32)[C@H](O)[C@@H]1OP(=O)(O)O)[C@@H](O)C(=O)NCCC(=O)NCCS` [CoA], in assay [1], the half-maximal inhibitory concentration (IC50) lay in the range of 331 to 1920 µM. On to `CC(=O)SCCNC(=O)CCNC(=O)[C@H](O)C(C)(C)COP(=O)(O)OP(=O)(O)OC[C@H]1O[C@@H](n2cnc3c(N)ncnc32)[C@H](O)[C@@H]1OP(=O)(O)O` [acetyl-CoA], for which the “LC-MS/MS of lysine acetylation” value in assay [2] is “in ECHS1 induced by acetyl-CoA incubation was inhibited by a 25-molar excess of CoA”.
